Measured values published in ChEMBL document CHEMBL3526149, “Brain tissue binding of drugs: evaluation and validation of solid supported porcine brain membrane vesicles (TRANSIL) as a novel high-throughput method” (Drug Metab Dispos, 2011).

Key:
[1] = Percentage unbound in solid supported porcine brain membrane vesicles at 5 uM by TRANSIL assay; settings: pig
[2] = Ratio of fraction unbound in Wistar rat brain homogenate at 5 uM after 5 hrs by equilibrium dialysis method to fraction unbound in solid supported porcine brain membrane vesicles at 5 uM by TRANSIL assay
[3] = Fraction unbound in Wistar rat brain homogenate at 5 uM after 5 hrs by equilibrium dialysis method
[4] = Binding affinity to Wistar rat brain lipid by TRANSIL assay; assay type: ADME
[5] = Binding affinity to Wistar rat brain lipid assessed as percentage unbound by TRANSIL assay; assay type: ADME, tissue-based
[6] = Percentage unbound in solid supported porcine brain membrane vesicles at 5 uM using four compound cocktail after 5 hrs by TRANSIL assay; assay type: ADME, tissue-based, Sus scrofa; settings: pig
[7] = Ratio, ratio of fraction unbound in solid supported porcine brain membrane vesicles at 5 uM dosed as discrete compounds after 5 hrs by TRANSIL assay to fraction unbound in solid supported porcine brain membrane vesicles at 5 uM using four compound cocktail after 5 hrs by TRANSIL assay; assay type: ADME, Sus scrofa; settings: pig
Albumin = Albumin (Rattus norvegicus, UniProt P02770); assay: Binding affinity to Wistar rat serum albumin; assay type: ADME
[8] = Ratio of fraction unbound in solid supported porcine brain membrane vesicles at 5 uM by TRANSIL assay to fraction unbound in Wistar rat brain homogenate at 5 uM after 5 hrs by equilibrium dialysis method; assay type: ADME, tissue-based
[9] = solid supported porcine brain membrane vesicles

Sequence of Albumin (P02770 whole entry): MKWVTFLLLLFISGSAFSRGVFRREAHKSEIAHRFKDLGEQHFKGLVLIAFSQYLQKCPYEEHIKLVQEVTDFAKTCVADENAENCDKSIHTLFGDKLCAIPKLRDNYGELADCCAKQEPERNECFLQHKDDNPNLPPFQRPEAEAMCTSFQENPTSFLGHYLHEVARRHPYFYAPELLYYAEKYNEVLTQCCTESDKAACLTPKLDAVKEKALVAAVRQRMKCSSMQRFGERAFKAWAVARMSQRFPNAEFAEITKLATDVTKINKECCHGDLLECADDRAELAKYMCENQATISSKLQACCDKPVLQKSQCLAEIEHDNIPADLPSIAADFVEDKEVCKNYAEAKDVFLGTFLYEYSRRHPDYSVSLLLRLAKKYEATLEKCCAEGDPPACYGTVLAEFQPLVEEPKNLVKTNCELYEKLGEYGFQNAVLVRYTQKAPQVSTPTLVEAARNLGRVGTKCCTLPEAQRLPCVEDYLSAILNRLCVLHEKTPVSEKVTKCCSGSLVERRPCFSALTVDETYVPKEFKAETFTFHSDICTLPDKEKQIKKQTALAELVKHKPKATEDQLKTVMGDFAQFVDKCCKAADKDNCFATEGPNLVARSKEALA

Compound	fraction unbound at 5 µM ([1]; Brain)	Ratio [2]	fraction unbound at 5 h, 5 µM [3]	Kd [4]	fraction unbound [5]	fraction unbound at 5 µM [1, 9]	fraction unbound at 5 h, 5 µM [6]	Ratio ([7]; in vitro)	Kd (Albumin)	Ratio [8]	Ratio [7]
CNCCC=C1c2ccccc2CCc2ccccc21 [NORTRIPTYLINE]	0.004	1.2	0.0046	–	–	–	–	–	–	–	–
CN1CCN(CCCN2c3ccccc3Sc3ccc(C(F)(F)F)cc32)CC1 [TRIFLUOPERAZINE]	0.0018	–	0.0007	0.392 µM	0.0033	–	–	–	–	–	–
Fc1ccc([C@@H]2CCNC[C@H]2COc2ccc3c(c2)OCO3)cc1 [PAROXETINE]	0.0026	1.5	0.0039	–	–	–	–	–	–	–	–
CC(C)NCC(O)COc1cccc2ccccc12 (stereo not drawn) [PROPRANOLOL]	–	1.5	0.03	–	–	0.02	0.02	1	–	–	–
CCN1CCCC1CNC(=O)c1cc(S(N)(=O)=O)ccc1OC (stereo not drawn) [SULPIRIDE]	0.24	2.6	0.63	–	–	–	–	–	–	–	–
COc1ccc(C(CN(C)C)C2(O)CCCCC2)cc1 (stereo not drawn) [VENLAFAXINE]	0.123	–	0.21	38.2 µM	0.242	–	–	–	–	–	–
CCCCN1CCCCC1C(=O)Nc1c(C)cccc1C (stereo not drawn) [BUPIVACAINE]	–	1.6	0.278	–	–	0.17	0.19	0.9	–	–	–
CN(C)CCCN1c2ccccc2Sc2ccc(Cl)cc21 [CHLORPROMAZINE]	0.0022	–	0.002	0.184 µM	0.0015	–	–	–	–	–	–
CC(C)Cc1ccc(C(C)C(=O)O)cc1 (stereo not drawn) [IBUPROFEN]	–	–	–	52.7 µM	–	–	–	–	–	–	–
CCN(CC)CCNC(=O)c1cc(Cl)c(N)cc1OC [METOCLOPRAMIDE]	0.295	–	0.36	88.9 µM	0.426	–	–	–	–	–	–
CN(C)CCC=C1c2ccccc2CCc2ccccc21 [AMITRIPTYLINE]	–	1.2	0.009	1.01 µM	0.0083	0.0073	0.0071	1	134 µM	–	–
O=C(CCCN1CCC(O)(c2ccc(Cl)cc2)CC1)c1ccc(F)cc1 [HALOPERIDOL]	0.014	–	0.011	1.56 µM	0.0129	–	0.014	1	96.9 µM	1.3	–
CSc1ccc2c(c1)N(CCC1CCCCN1C)c1ccccc1S2 (stereo not drawn) [THIORIDAZINE]	0.0003	3.3	0.001	0.369 µM	0.0031	–	–	–	6.69 µM	–	–
CNCCC(Oc1ccc(C(F)(F)F)cc1)c1ccccc1 (stereo not drawn) [FLUOXETINE]	–	1.3	0.004	0.323 µM	0.0027	0.003	–	–	36.1 µM	–	–
Cc1nc2n(c(=O)c1CCN1CCC(c3noc4cc(F)ccc34)CC1)CCCC2 [RISPERIDONE]	0.057	–	–	–	0.121	–	–	–	43.8 µM	–	–
CC(NC(C)(C)C)C(=O)c1cccc(Cl)c1 (stereo not drawn) [BUPROPION]	–	1	0.17	–	–	0.17	0.14	–	–	–	1.2
Cc1ncc2n1-c1ccc(Cl)cc1C(c1ccccc1F)=NC2 [MIDAZOLAM]	0.041	–	0.023	–	–	–	0.037	–	–	1.8	1.1
CN1CCN(C2=Nc3cc(Cl)ccc3Nc3ccccc32)CC1 [CLOZAPINE]	0.0072	1.5	0.011	0.775 µM	0.0064	–	0.0092	0.8	78.8 µM	–	–
O=c1n(CCCN2CCN(c3cccc(Cl)c3)CC2)nc2ccccn12 [TRAZODONE]	–	1	0.055	5.47 µM	0.0437	0.057	–	–	7.95 µM	–	–
CN(C)CCC=C1c2ccccc2C=Cc2ccccc21 [CYCLOBENZAPRINE]	0.01	–	0.0073	–	–	–	–	–	–	1.4	–
CC(=O)CC(c1ccccc1)c1c(O)c2ccccc2oc1=O (stereo not drawn) [WARFARIN]	–	–	–	81.4 µM	0.405	–	–	–	–	–	–
O=C1NC(=O)C(c2ccccc2)(c2ccccc2)N1 [PHENYTOIN]	0.047	1.7	0.081	–	–	–	–	–	–	–	–
OCCOCCN1CCN(C(c2ccccc2)c2ccc(Cl)cc2)CC1 (stereo not drawn) [HYDROXYZINE]	0.021	–	0.0102	–	–	–	–	–	–	2.1	–
NC(=O)N1c2ccccc2C=Cc2ccccc21 [CARBAMAZEPINE]	0.132	–	0.119	24.2 µM	0.168	–	0.26	–	–	–	–
CCCC(C)(COC(N)=O)COC(=O)NC(C)C (stereo not drawn) [CARISOPRODOL]	–	–	0.202	–	–	0.295	–	–	–	1.5	–
Cn1c(=O)c2c(ncn2C)n(C)c1=O [CAFFEINE]	0.26	2	0.52	–	–	–	–	–	–	–	–
